Measurements as given in ChEMBL document CHEMBL1201862, “PubChem BioAssay data set” (2004).
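Test compounds were applied to cells in 96-well plates for 48 hours at 5 doses. The concentration for 50% growth inhibition is given as GI50.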 Activity calls are given as the source filed them. Rule as the data show it: active = GI50 up to about 1.1 µM and inactive = higher.

Key:
Test in all cases: growth of human tumour cells (NCI), 48 h
786-0 = test system: 786-0
A498 = test system: A498
A549 = test system: A549
ACHN = test system: ACHN
BT-549 = test system: BT-549
CCRF-CEM = test system: CCRF-CEM
COLO 205 = test system: COLO 205
DU-145 = test system: DU-145
EKVX = test system: EKVX
HCC 2998 = test system: HCC 2998
HCT-116 = test system: HCT-116
HCT-15 = test system: HCT-15
HL-60 = test system: HL-60
HOP-62 = test system: HOP-62
HOP-92 = test system: HOP-92
HT-29 = test system: HT-29
Hs-578T = test system: Hs-578T
IGROV-1 = test system: IGROV-1
K562 = test system: K562
KM12 = test system: KM12
LOX IMVI = test system: LOX IMVI
M14 = test system: M14
MCF7 = test system: MCF7
MDA-MB-231 = test system: MDA-MB-231
MDA-MB-435 = test system: MDA-MB-435
MDA-N = test system: MDA-N
MOLT-4 = test system: MOLT-4
Malme-3M = test system: Malme-3M
NCI-H226 = test system: NCI-H226
NCI-H23 = test system: NCI-H23
NCI-H460 = test system: NCI-H460
NCI-H522 = test system: NCI-H522
NCI/ADR-RES = test system: NCI/ADR-RES
OVCAR-3 = test system: OVCAR-3
OVCAR-4 = test system: OVCAR-4
OVCAR-5 = test system: OVCAR-5
OVCAR-8 = test system: OVCAR-8
PC-3 = test system: PC-3
RPMI-8226 = test system: RPMI-8226
RXF 393 = test system: RXF 393
SF-268 = test system: SF-268
SF-295 = test system: SF-295
SF-539 = test system: SF-539
SK-MEL-28 = test system: SK-MEL-28
SK-MEL-2 = test system: SK-MEL-2
SK-MEL-5 = test system: SK-MEL-5
SK-OV-3 = test system: SK-OV-3
SN12C = test system: SN12C
SNB-19 = test system: SNB-19
SNB-75 = test system: SNB-75
SW-620 = test system: SW-620
T47D = test system: T47D
TK-10 = test system: TK-10
U-251 = test system: U-251
UACC-257 = test system: UACC-257
UACC-62 = test system: UACC-62
UO-31 = test system: UO-31
CAKI-1 = test system: CAKI-1
SR = test system: SR

Measured: GI50

C(=N\N=C1NCCCN1)/c1ccc2ccccc2c1
inactive: 786-0 11.7 µM | A498 3.01 µM | A549 9.23 µM | ACHN 10.5 µM | BT-549 17.4 µM | CCRF-CEM 11.2 µM | COLO 205 5.93 µM | DU-145 11 µM | EKVX 14.1 µM | HCC 2998 2.64 µM | HCT-116 10.4 µM | HL-60 5.24 µM | HOP-62 12.1 µM | HOP-92 10.3 µM | HT-29 8.39 µM | Hs-578T 16.9 µM | IGROV-1 11.7 µM | K562 3.48 µM | KM12 13.6 µM | LOX IMVI 9.14 µM | M14 7.98 µM | MCF7 3.4 µM | MDA-MB-231 6.32 µM | MDA-MB-435 5.89 µM | MDA-N 8.97 µM | MOLT-4 1.95 µM | Malme-3M 18.2 µM | NCI-H226 12.4 µM | NCI-H23 17.6 µM | NCI-H460 4.98 µM | NCI-H522 15.1 µM | NCI/ADR-RES 19.4 µM | OVCAR-3 14.7 µM | OVCAR-4 19.3 µM | OVCAR-5 8.69 µM | OVCAR-8 14.7 µM | PC-3 10.3 µM | RPMI-8226 4.7 µM | RXF 393 15.5 µM | SF-268 14.2 µM | SF-295 11.4 µM | SF-539 16.8 µM | SK-MEL-28 15.9 µM | SK-MEL-2 13.7 µM | SK-MEL-5 3.47 µM | SK-OV-3 11.2 µM | SN12C 12.4 µM | SNB-19 14.7 µM | SNB-75 3.97 µM | SW-620 12.4 µM | T47D 10.4 µM | TK-10 18.6 µM | U-251 6.53 µM | UACC-257 17.3 µM | UACC-62 13.5 µM | UO-31 11.6 µM
13.7 µM: HCT-15

Nc1ncnc2c1ncn2C(=O)NC12CC3CC(CC(C3)C1)C2
inactive: 786-0 > 100 µM | A498 > 100 µM | A549 > 100 µM | ACHN > 100 µM | BT-549 > 100 µM | CAKI-1 > 100 µM | CCRF-CEM 44 µM | COLO 205 > 100 µM | DU-145 > 100 µM | EKVX > 100 µM | HCC 2998 > 100 µM | HCT-116 > 100 µM | HL-60 > 100 µM | HOP-62 > 100 µM | HOP-92 > 100 µM | HT-29 > 100 µM | Hs-578T > 100 µM | K562 > 100 µM | KM12 > 100 µM | LOX IMVI > 100 µM | M14 > 100 µM | MCF7 > 100 µM | MDA-MB-231 > 100 µM | MDA-MB-435 > 100 µM | MDA-N > 100 µM | MOLT-4 > 100 µM | Malme-3M > 100 µM | NCI-H226 > 100 µM | NCI-H23 > 100 µM | NCI-H460 > 100 µM | NCI/ADR-RES > 100 µM | OVCAR-3 > 100 µM | OVCAR-4 > 100 µM | OVCAR-5 > 100 µM | OVCAR-8 > 100 µM | PC-3 > 100 µM | RPMI-8226 > 100 µM | RXF 393 > 100 µM | SF-268 > 100 µM | SF-295 > 100 µM | SF-539 > 100 µM | SK-MEL-28 > 100 µM | SK-MEL-2 > 100 µM | SK-MEL-5 > 100 µM | SK-OV-3 > 100 µM | SN12C > 100 µM | SNB-19 > 100 µM | SNB-75 84.7 µM | SW-620 > 100 µM | T47D 4.97 µM | TK-10 > 100 µM | U-251 > 100 µM | UACC-257 > 100 µM | UACC-62 > 100 µM | UO-31 > 100 µM
> 100 µM: HCT-15

O=C(/C=C1\Nc2ccccc2N=C1NC12CC3CC(CC(C3)C1)C2)c1ccc(Br)cc1
inactive: 786-0 > 10 µM | A498 > 10 µM | A549 > 10 µM | ACHN > 10 µM | BT-549 > 10 µM | CAKI-1 > 10 µM | CCRF-CEM > 10 µM | COLO 205 > 10 µM | DU-145 > 10 µM | EKVX > 10 µM | HCC 2998 > 10 µM | HCT-116 > 10 µM | HL-60 > 10 µM | HOP-62 > 10 µM | HT-29 > 10 µM | Hs-578T > 10 µM | IGROV-1 > 10 µM | K562 > 10 µM | KM12 > 10 µM | LOX IMVI > 10 µM | M14 > 10 µM | MCF7 > 10 µM | MDA-MB-231 > 10 µM | MDA-MB-435 > 10 µM | MDA-N > 10 µM | MOLT-4 > 10 µM | Malme-3M > 10 µM | NCI-H226 > 10 µM | NCI-H23 > 10 µM | NCI-H460 > 10 µM | NCI-H522 > 10 µM | NCI/ADR-RES > 10 µM | OVCAR-3 > 10 µM | OVCAR-4 > 10 µM | OVCAR-5 > 10 µM | OVCAR-8 > 10 µM | PC-3 > 10 µM | RPMI-8226 > 10 µM | RXF 393 > 10 µM | SF-268 > 10 µM | SF-295 > 10 µM | SF-539 > 10 µM | SK-MEL-28 > 10 µM | SK-MEL-2 > 10 µM | SK-MEL-5 > 10 µM | SK-OV-3 > 10 µM | SN12C > 10 µM | SNB-19 > 10 µM | SNB-75 > 10 µM | SW-620 > 10 µM | T47D > 10 µM | TK-10 > 10 µM | U-251 > 10 µM | UACC-257 > 10 µM | UACC-62 > 10 µM | UO-31 > 10 µM
> 10 µM: HCT-15

Oc1ccc(-c2cc(-c3c(O)cc(O)cc3O)on2)cc1
inactive: 786-0 93.5 µM | A549 54.2 µM | ACHN 36.4 µM | BT-549 54.5 µM | CAKI-1 94.6 µM | CCRF-CEM 23.2 µM | COLO 205 > 10 µM | DU-145 53.1 µM | EKVX 62.7 µM | HCC 2998 66.4 µM | HCT-116 42.5 µM | HL-60 > 100 µM | HOP-62 > 100 µM | HT-29 37 µM | Hs-578T 38.2 µM | IGROV-1 51.1 µM | K562 40.5 µM | KM12 72.6 µM | LOX IMVI 55.1 µM | M14 > 100 µM | MCF7 89.5 µM | MDA-MB-231 > 100 µM | MDA-MB-435 56.1 µM | MDA-N 50.2 µM | MOLT-4 38.5 µM | Malme-3M 70.5 µM | NCI-H226 70.8 µM | NCI-H23 > 100 µM | NCI-H460 40.3 µM | NCI-H522 51.6 µM | NCI/ADR-RES > 100 µM | OVCAR-3 > 100 µM | OVCAR-4 > 100 µM | OVCAR-5 > 100 µM | OVCAR-8 55.6 µM | PC-3 48 µM | RPMI-8226 44.9 µM | SF-268 44.3 µM | SF-295 74.3 µM | SF-539 31.9 µM | SK-MEL-28 52.8 µM | SK-MEL-2 > 100 µM | SK-MEL-5 42.3 µM | SK-OV-3 56.5 µM | SN12C 80.5 µM | SNB-19 91.2 µM | SNB-75 74.5 µM | SR 81.3 µM | SW-620 65.6 µM | T47D 45.5 µM | TK-10 55.1 µM | U-251 64.7 µM | UACC-257 97.5 µM | UACC-62 31.3 µM | UO-31 53 µM
56.8 µM: HCT-15
